Assay results reported in patent publication US10981858B2, “Dendrimer and formulations thereof” (Priostar Pty Ltd, priority 2015, dated 2021).
Entries after “also recorded” stand apart in the source; their conditions may differ.

Legend:
Format in all cases: physicochemical
[1] = 2,4-D/dendrimer hard water testing (clarity, sedimentation); details: 30° C.; for Appearance at Addition / Appearance/Sedimentation After 24 Hrs.: 2,4-D Amine in 342 ppm hard water
Protocol: 342 ppm hard water was prepared as per CIPAC method MT18. The hard water was heated to 30° C. […]

[2] = 2,4-D/dendrimer formulation stability study (crystallisation at 0° C.); details: for Crystallisation After 7 Days at 0° C. With Seeding: 2,4-D Amine 625 g/l seeded with 2,4-D Amine salt; for Crystallisation After 7 Days at 0° C.: without seeding
Protocol: 20 ml of 2,4-D Amine(2,4-D 625 g/l market sample, Rygel, Adama Australia) was transferred to 25 ml clear vials and dendrimer added (with or without 30% Dithethylene Glycol). Caps were tightened to ensure no moisture entered the vials. Formulations were placed in a freezer at 0° C. […] In a related experiment, formulations were prepared with seeding with 2,4-D Amine salt (Shanghai Biochemical Sci. Ltd., purity 98 in order to hasten rate of crystallisation. The results are provided in Table 2.

[3] = Solubilization of water insoluble surfactant Ethoxylated Lauryl alcohol-3 M in LA-9 solution; details: for Quantity LA-3 added to LA-9 solution: 50 g, until hazy
Protocol: 5% w/w aqueous solution of Ethoxylated Lauryl alcohol-9 mole (water soluble surfactant) was prepared in Deionized water (2.5 g in 47.5 ml). Dendrimer compounds 1 and 4 were diluted 70:30 w/w in Diethylene glycol. The 5% Ethoxylated Lauryl alcohol-9 M (LA-9) solution was combined with dendrimer DEG solution at 90:10, 80:20 and 70:30 w/w (total weight 50 g).
Ethoxylated lauryl alcohol-3 mole (water insoluble surfactant) was added dropwise, while stirring, to the 50 g LA-9 solution (with or without dendrimer), until it became hazy. The weight of Ethoxylated lauryl alcohol-3 M added was recorded.

[4] = Solubilization of Methylated seed oil (MSO) in aqueous LA-9 solution; details: for Quantity MSO added to 10% LA-9 solution: 50 g, until hazy
Protocol: 10% aqueous solution of Ethoxylated Lauryl alcohol-9 mole (water soluble surfactant) was prepared in Deionized water (5 g in 45 ml). Dendrimer compounds 1 and 4 were prepared 70:30 w/w in Diethylene glycol (DEG). The 10% Ethoxylated Lauryl alcohol-9 M (LA-9) solution was combined with dendrimer DEG solution at 80:20 and 60:40 w/w (total weight of 50 g).
Methylated seed oil (MSO) (STEPOSOL-ROE-W, canola oil methyl ester, Stepan) was added dropwise under stirring to the 10% LA-9 solution (with or without dendimers), until the solution became hazy. Weight of MSO added was recorded.

[5] = Water value of dendrimers with solvent (Solvesso 200); details: 50 g aqueous solution, 7% dendrimer and 3% DEG; until hazy
Protocol: 50 g Aqueous solution of Dendrimer were prepared containing 7% dendrimer and 3% Diethylene glycol (DEG) by weight. Solvesso 200 (C10-13 aromatic hydrocarbon solvent) was added dropwise under stirring until the solution became hazy. Weight of Solvesso added was recorded.

[6] = Dynamic viscosity of aqueous dendrimer solution (Brookfield); details: aqueous solution 7% dendrimer and 3% DEG, ambient temperature, spindle no. 63 at 50 rpm
Protocol: 50 g aqueous solution of dendrimer (7% dendrimer and 3% DEG) was prepared in deionized water in a beaker, and subjected to dynamic viscosity measurement using Brookfield viscometer at ambient temperature. Viscosity studies were conducted using spindle no. 63 at 50 rpm. It was observed that viscosity of Compound-1 solution was 1.8 cps and Compound-4 solution was 0.6 cps.

[7] = Tebuconazole 600 SC hard water testing: suspensibility, column thinning, sedimentation; details: 2 ml Tebuconazole 600 SC, dendrimer 0.7%, in 98 ml 342 ppm hard water, 30° C., 24 hours
Protocol: (§1) Formulations were prepared by mixing water, surfactant, dispersing agent, wetting agent and antifoam together then gradually adding active. High shear mix for 20-30 minutes to disperse formulation ingredients in water before adding the active and mixing until homogeneous. The mixture was milled on a Dyno bead mill (1 m/s) with 0.4-0.6 mm beads at max. 40° C. until particle size was <4 um. Dendrimer compound (in DEG) was added and stirred for 20 minutes. Thickener and antimicrobial was then added and stirred for 20 minutes. Formulations were deaerated by sonication.
98 ml of 342 ppm hard water (prepared as per CIPAC method MT18) was heated to 30° C. before adding 2 ml. of Tebuconazole 600 SC formulation. Temperature was maintained at 30° C. for 24 hours and formulation characteristics were studied for suspension stability, wetting, column thinning/separation and sedimentation.

[8] = Tebuconazole 600 SC formulation viscosity (Table 8); details: dendrimer 0.7%
Protocol: as §1

[9] = Additional tebuconazole formulations: suspension stability and viscosity; details: additional tebuconazole formulation, 0.8% additive
From the text: Additional formulations were developed, and formulation characteristics were studied for suspension stability, and viscosity.

[10] = Imidacloprid 700SC formulation viscosity and stability; details: Imidacloprid 700 g/L formulation, dendrimer 20 g/L
Protocol: Imidacloprid formulations were prepared by using high shear mixing to disperse formulation ingredients in 75% of the required water before adding the active and mixing until homogeneous. The mixture was milled on a bead mill (4 m/s) at 30-35° C. for 1 complete pass. Thickener, glycerine and residual water were then added under high shear mixing. Formulations were tested for viscosity (using a Brookfield LV viscometer) low temperature stability (0 C for 7 days) and RT stability. Many other dendrimers containing formulations prepared either solidified on milling or pre-milling Compound 4 reduced viscosity and provided greater formulation stability.

[11] = 2,4-D Amine 625 g/l, dendrimer 2%
[12] = 2,4-D Amine 625 g/l, dendrimer 5%
[13] = 2,4-D Amine 625 g/l, dendrimer 10%

Appearance at Addition ([1]; dendrimer 1.4% (w/w), 0.6% DEG): Clear
Appearance/Sedimentation After 24 Hrs. ([1]; dendrimer 1.4% (w/w), 0.6% DEG): Clear
Appearance at Addition ([1]; dendrimer 2% (w/w)): Clear
Appearance/Sedimentation After 24 Hrs. ([1]; dendrimer 2% (w/w)): Clear
Appearance at Addition ([1]; dendrimer 3.5% (w/w), 1.5% DEG): Clear
Appearance/Sedimentation After 24 Hrs. ([1]; dendrimer 3.5% (w/w), 1.5% DEG): Clear
Appearance at Addition ([1]; dendrimer 5% (w/w)): Clear
Appearance/Sedimentation After 24 Hrs. ([1]; dendrimer 5% (w/w)): Clear
Appearance at Addition ([1]; dendrimer 7% (w/w), 3% DEG): Clear
Appearance/Sedimentation After 24 Hrs. ([1]; dendrimer 7% (w/w), 3% DEG): Clear
Appearance at Addition ([1]; dendrimer 10% (w/w)): Clear
Appearance/Sedimentation After 24 Hrs. ([1]; dendrimer 10% (w/w)): Clear
Appearance of 2,4-D solutions in hard water ([1]; all concentrations tested (from 1.4 to 10%), 342 ppm hard water, 24 hours): clear
Crystallisation After 7 Days at 0° C. With Seeding ([2]; dendrimer 1.4%, Diethylene Glycol 0.6%): Crystallised
Crystallisation After 7 Days at 0° C. With Seeding ([2]; dendrimer 2%): Crystallised
Crystallisation After 7 Days at 0° C. With Seeding ([2]; dendrimer 3.5%, Diethylene Glycol 1.5%): Crystallised
Crystallisation After 7 Days at 0° C. With Seeding ([2]; dendrimer 5%): Crystallised
Crystallisation at 0° C. without seeding ([2]; 2,4-D Amine 625 g/l, all levels of dendrimer tested): did not result in crystallisation
Crystallisation After 14 Days at 0° C. ([2]; 2,4-D Amine 625 g/l, dendrimer 1.4%, Diethylene Glycol 0.6%): Crystallised
Crystallisation After 14 Days at 0° C. [2, 11]: Crystallised
Crystallisation After 14 Days at 0° C. ([2]; 2,4-D Amine 625 g/l, dendrimer 3.5%, Diethylene Glycol 1.5%): No
Crystallisation After 14 Days at 0° C. [2, 12]: Crystallised
Crystallisation After 14 Days at 0° C. ([2]; 2,4-D Amine 625 g/l, dendrimer 7%, Diethylene Glycol 3%): No
Crystallisation After 14 Days at 0° C. [2, 13]: No
Crystallisation After 7 Days at 0° C. [2, 11]: No
Crystallisation After 7 Days at 0° C. [2, 12]: No
Crystallisation After 7 Days at 0° C. [2, 13]: No
Quantity LA-3 added to LA-9 solution ([3]; ratio 5% LA-9 solution:dendrimer/DEG solution 70:30 (w/w), 21% dendrimer (w/w)): 2.01 g
Quantity LA-3 added to LA-9 solution ([3]; ratio 5% LA-9 solution:dendrimer/DEG solution 80:20 (w/w), 14% dendrimer (w/w)): 2.86 g
Quantity LA-3 added to LA-9 solution ([3]; ratio 5% LA-9 solution:dendrimer/DEG solution 90:10 (w/w), 7% dendrimer (w/w)): 2.11 g
Increase in solubilisation of Ethoxylated lauryl alcohol-3 M ([3]; over LA-9 without dendrimer): 72%
Increase in solubilisation of Methylated seed oil in aqueous solution [4]: 110%
Quantity MSO added to 10% LA-9 solution ([4]; ratio LA-9 solution:dendrimer/DEG solution 60:40 (w/w), 28% dendrimer (w/w)): 0.81 g
Quantity MSO added to 10% LA-9 solution ([4]; ratio LA-9 solution:dendrimer/DEG solution 80:20 (w/w), 14% dendrimer (w/w)): 0.92 g
Quantity Solvesso 200 added [5]: 2.15 g
Dynamic viscosity [6]: 0.6 cps
Suspensibility: Sediment [7]: <0.5 mL⁻¹
Suspensibility: nature of sediment [7]: Compact
Suspensibility: Column Thinning ([7]; top thinning): No
Viscosity 0 C. ([8]; 0 C.): 744
Viscosity 54 C. ([8]; 54 C.): 730
Viscosity RT ([8]; RT): 730 cP
Observation: sediment at 0 C. ([9]; 0 C.): No sediment at 0 C.,
Viscosity (cP) 0 C. ([9]; 0 C.): 514 cP
Observation: sediment at RT ([9]; RT): fluffy, low sediment
Viscosity (cP) RT ([9]; RT): 672 cP
Observation: sediment at 0 C. ([10]; 0 C for 7 days): No sediment at 0 C.,
Viscosity (cP) 0 C. ([10]; 0 C., Brookfield LV viscometer): 552 cP
Observation: sediment at RT ([10]; RT): fluffy, low sediment at RT
Viscosity (cP) RT ([10]; RT, Brookfield LV viscometer): 574 cP
SMILES: OCCN(CCO)CC(O)COCC(COCC(O)CN(CCO)CCO)(COCC(O)CN(CCO)CCO)COCC(COCC(O)CN(CCO)CCO)(COCC(O)CN(CCO)CCO)COCC(O)CN(CCO)CCO (stereo not shown) [Compound 4, 9,9′-(Oxybis(methylene))bis(9-((3-(bis(2-hydroxyethyl)amino)-2-hydroxypropoxy)methyl)-3,15-bis(2-hydroxyethyl)-7,11-dioxa-3,15-diazaheptadecane-1,5,13,17-tetraol)]
Crystallisation After 7 Days at 0° C. With Seeding ([2]; dendrimer 7%, Diethylene Glycol 3%): remained stable; also recorded: No, Clear
Crystallisation After 7 Days at 0° C. With Seeding ([2]; dendrimer 10%): remained stable; also recorded: No, Clear
